{
  "source": "patent US8835422B2",
  "about": "“Substituted imidazoheterocycle derivatives” (Cara Therapeutics, Inc., priority 2008, dated 2014)",
  "key": {"[1]": {"molecular_target": "T1, human CB2 receptor (hCB2) (Homo sapiens, UniProt P34972)", "T1 construct": "host or cells: CHO-K1", "T1 sequence (P34972 whole entry)": "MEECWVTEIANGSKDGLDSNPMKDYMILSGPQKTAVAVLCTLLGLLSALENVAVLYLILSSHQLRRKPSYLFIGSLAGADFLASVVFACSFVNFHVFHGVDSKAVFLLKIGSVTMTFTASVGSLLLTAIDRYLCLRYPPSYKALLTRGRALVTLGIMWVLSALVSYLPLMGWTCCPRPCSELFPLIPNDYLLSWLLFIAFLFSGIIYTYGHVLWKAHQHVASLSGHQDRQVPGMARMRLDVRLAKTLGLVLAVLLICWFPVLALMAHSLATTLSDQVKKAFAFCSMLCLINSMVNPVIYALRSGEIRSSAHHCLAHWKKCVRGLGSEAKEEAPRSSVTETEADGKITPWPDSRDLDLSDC", "assay": "cAMP assay (LANCE TR-FRET) in CHO-K1 cells stably expressing hCB2", "type": "cell-based", "experimental": "(§1) The ability of compounds to act as agonists or inverse agonists at human CB2 and CB1 receptors (hCB2, hCB1, respectively) and at the rat CB2 receptor (rCB2) was determined by measuring changes in intracellular cAMP levels. Chinese Hamster Ovary (CHO-K1) cell lines stably expressing hCB2 (Genebank: X74328) or hCB1 (Genebank: X54937) were purchased from Euroscreen (Gosselies, Belgium). The rat CB2 receptor was expressed from genomic DNA (provided by M. Abood, California Pacific Medical Center) in CHO-K1 cells from expression plasmid vector, pcDNA3.1.\n(§2) Receptor mediated responses were determined by measuring changes in intracellular cAMP using LANCE cAMP detection kit (cat #AD0264, Perkin Elmer, Wellesley, Mass.) based on time-resolved fluorescence resonance energy transfer (TR-FRET).\n(§3) On the day of the experiment, cells were spun at low speed for 5 min at room temperature. […] Cell clumps were removed by filtering through cell strainer 40 μm (BD Falcon, Discovery Labware, Bedford, Mass.) and diluted to 2×10^5 cells/mL. Antibody supplied with the LANCE cAMP immunoassay kit was then added according to the manufacturer's instructions. An aliquot of cells was taken for un-induced controls. […] Cells were then incubated for 30 min at room temperature prior to adding to Proxiplates containing test compounds (final DMSO concentration was less than 0.5%) with a Multidrop bulk dispenser, followed by a sixty minute incubation at room temperature. The response was stopped by addition of the detection mix supplied with the LANCE kit. The reagents were allowed to equilibrate for three hours prior to reading on an Envision multi-mode detector (Perkin-Elmer). TR-FRET was measured using a 330-380 nm excitation filter, a 665 nm emission filter, dichroic mirror 380 nm and Z=1 mm. Cyclic AMP concentrations in each well were back-calculated from a cAMP standard curve run concurrently during each assay. Each plate contained 16 wells of forskolin stimulated cells and 16 wells of forskolin plus CP55,940-treated cells. […] Concentrations of cAMP were expressed as a percent of the difference of these two groups of wells."}, "[2]": {"molecular_target": "human CB1 receptor (hCB1) (Homo sapiens, UniProt P21554)", "sequence (P21554 whole entry)": "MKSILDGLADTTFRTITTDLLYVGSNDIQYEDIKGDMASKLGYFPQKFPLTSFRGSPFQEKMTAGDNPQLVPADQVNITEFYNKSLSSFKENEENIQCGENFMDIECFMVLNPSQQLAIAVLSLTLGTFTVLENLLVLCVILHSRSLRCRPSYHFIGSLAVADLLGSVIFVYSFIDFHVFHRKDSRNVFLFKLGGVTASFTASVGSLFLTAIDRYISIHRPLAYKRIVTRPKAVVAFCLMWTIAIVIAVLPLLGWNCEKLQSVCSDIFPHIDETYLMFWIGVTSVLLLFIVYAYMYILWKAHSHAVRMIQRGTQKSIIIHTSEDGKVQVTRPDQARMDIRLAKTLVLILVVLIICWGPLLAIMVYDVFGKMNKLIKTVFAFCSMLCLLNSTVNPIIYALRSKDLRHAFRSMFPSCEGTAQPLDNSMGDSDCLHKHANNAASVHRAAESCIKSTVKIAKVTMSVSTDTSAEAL", "assay": "cAMP assay (LANCE TR-FRET) in CHO-K1 cells stably expressing hCB1", "type": "cell-based", "experimental": "as §1, §2, §3"}},
  "data": [
    {"smiles": "O=C(N[C@H]1c2ccccc2C[C@@H]1O)c1nc(-c2ccc(F)c(F)c2)n2c1CCCCC2", "note": "[Compound 1-15, 3-(3,4-difluorophenyl)-N-((1S,2S)-2-hydroxy-2,3-dihydro-1H-inden-1-yl)-6,7,8,9-tetrahydro-5H-imidazo[1,5-a]azepine-1-carboxamide]", "values": [
      {"measurement": "EC50", "setting": "[1]", "value": "0.1 to 10", "unit": "nM"}
    ]},
    {"smiles": "CNC(=O)[C@@H](NC(=O)c1nc(-c2ccc(F)c(F)c2)n2c1CN(C)CC(C)(C)C2)C(C)(C)C", "note": "[Compound 2-1, (S)-3-(3,4-difluorophenyl)-N-(3,3-dimethyl-1-(methylamino)-1-oxobutan-2-yl)-6,6,8-trimethyl-6,7,8,9-tetrahydro-5H-imidazo[1,5-a][1,4]diazepine-1-carboxamide]", "values": [
      {"measurement": "EC50", "setting": "[1]", "value": "10 to 100", "unit": "nM"}
    ]},
    {"smiles": "CNC(=O)[C@@H](NC(=O)c1nc(-c2ccc(F)c(F)c2)n2c1CN(C)C(C)CC2)C(C)(C)C", "note": "(single isomer, unassigned) [Compound 2-4]", "values": [
      {"measurement": "EC50", "setting": "[1]", "value": "10 to 100", "unit": "nM"}
    ]},
    {"smiles": "COC(=O)[C@@H](NC(=O)c1nc(-c2ccc(F)c(F)c2)n2c1CCCCC2)C(C)(C)C", "note": "[Compound 1-23, (S)-methyl 2-(3-(3,4-difluorophenyl)-6,7,8,9-tetrahydro-5H-imidazo[1,5-a]azepine-1-carboxamido)-3,3-dimethylbutanoate]", "values": [
      {"measurement": "EC50", "setting": "[1]", "value": "0.1 to 10", "unit": "nM"},
      {"measurement": "EC50", "setting": "[2]", "value": "0.1 to 10", "unit": "nM"}
    ]},
    {"smiles": "CNC(=O)[C@@H](NC(=O)c1nc(-c2ccc(Cl)cc2F)n2c1COCCC2)C(C)(C)C", "note": "[Compound 1-13, (S)-3-(4-chloro-2-fluorophenyl)-N-(3,3-dimethyl-1-(methylamino)-1-oxobutan-2-yl)-5,6,7,9-tetrahydroimidazo[5,1-c][1,4]oxazepine-1-carboxamide]", "values": [
      {"measurement": "EC50", "setting": "[1]", "value": "0.1 to 10", "unit": "nM"},
      {"measurement": "EC50", "setting": "[2]", "value": "0.1 to 10", "unit": "nM"}
    ]},
    {"smiles": "O=C(N[C@@H]1c2ccccc2C[C@H]1O)c1nc(-c2ccc(F)c(F)c2)n2c1CCCCC2", "note": "[Compound 1-17, 3-(3,4-difluorophenyl)-N-((1R,2R)-2-hydroxy-2,3-dihydro-1H-inden-1-yl)-6,7,8,9-tetrahydro-5H-imidazo[1,5-a]azepine-1-carboxamide]", "values": [
      {"measurement": "EC50", "setting": "[1]", "value": "10 to 100", "unit": "nM"},
      {"measurement": "EC50", "setting": "[2]", "value": "10 to 100", "unit": "nM"}
    ]},
    {"smiles": "CCN1Cc2c(C(=O)N[C@H](C(=O)NC)C(C)(C)C)nc(-c3ccc(F)c(F)c3)n2CC(C)C1", "note": "(mixture of isomers) [Compound 2-3, (S)-3-(3,4-difluorophenyl)-N-(3,3-dimethyl-1-(methylamino)-1-oxobutan-2-yl)-8-ethyl-6-methyl-6,7,8,9-tetrahydro-5H-imidazo[1,5-a][1,4]diazepine-1-carboxamide]", "values": [
      {"measurement": "EC50", "setting": "[1]", "value": "10 to 100", "unit": "nM"},
      {"measurement": "EC50", "setting": "[2]", "value": "10 to 100", "unit": "nM"}
    ]},
    {"smiles": "COC(=O)[C@@H](NC(=O)c1nc(-c2ccccc2)n2c1CCCCC2)C(C)(C)C", "note": "[Compound 1-24, (S)-methyl 3,3-dimethyl-2-(3-phenyl-6,7,8,9-tetrahydro-5H-imidazo[1,5-a]azepine-1-carboxamido)butanoate]", "values": [
      {"measurement": "EC50", "setting": "[1]", "value": "0.1 to 10", "unit": "nM"},
      {"measurement": "EC50", "setting": "[2]", "value": "0.1 to 10", "unit": "nM"}
    ]},
    {"smiles": "CC(C)(C)[C@H](NC(=O)c1nc(-c2cc(F)ccc2F)n2c1CCCCC2)C(=O)N1CCC1", "note": "[Compound 1-5, (S)—N-(1-(azetidin-1-yl)-3,3-dimethyl-1-oxobutan-2-yl)-3-(2,5-difluorophenyl)-6,7,8,9-tetrahydro-5H-imidazo[1,5-a]azepine-1-carboxamide]", "values": [
      {"measurement": "EC50", "setting": "[1]", "value": "0.1 to 10", "unit": "nM"},
      {"measurement": "EC50", "setting": "[2]", "value": "0.1 to 10", "unit": "nM"}
    ]},
    {"smiles": "CC(C)(C)[C@H](NC(=O)c1nc(-c2ccc(F)c(F)c2)n2c1COCCC2)C(=O)NCCO", "note": "[Compound 1-11, (S)-3-(3,4-difluorophenyl)-N-(1-(2-hydroxyethylamino)-3,3-dimethyl-1-oxobutan-2-yl)-5,6,7,9-tetrahydroimidazo[5,1-c][1,4]oxazepine-1-carboxamide]", "values": [
      {"measurement": "EC50", "setting": "[1]", "value": "10 to 100", "unit": "nM"}
    ]},
    {"smiles": "CC(C)(C)[C@@H](CO)NC(=O)c1nc(-c2ccc(F)c(F)c2)n2c1CCCCC2", "note": "[Compound 1-6, (S)-3-(3,4-difluorophenyl)-N-(1-hydroxy-3,3-dimethylbutan-2-yl)-6,7,8,9-tetrahydro-5H-imidazo[1,5-a]azepine-1-carboxamide]", "values": [
      {"measurement": "EC50", "setting": "[1]", "value": "0.1 to 10", "unit": "nM"}
    ]},
    {"smiles": "O=C(N[C@@H]1c2ccccc2C[C@@H]1O)c1nc(-c2ccc(F)c(F)c2)n2c1CCCCC2", "note": "[Compound 1-16, 3-(3,4-difluorophenyl)-N-((1R,2S)-2-hydroxy-2,3-dihydro-1H-inden-1-yl)-6,7,8,9-tetrahydro-5H-imidazo[1,5-a]azepine-1-carboxamide]", "values": [
      {"measurement": "EC50", "setting": "[1]", "value": "10 to 100", "unit": "nM"},
      {"measurement": "EC50", "setting": "[2]", "value": "10 to 100", "unit": "nM"}
    ]},
    {"smiles": "CNC(=O)[C@@H](NC(=O)c1nc(-c2ccccc2)n2c1CCOCC2)C(C)(C)C", "note": "[Compound 1-8, (S)—N-(3,3-dimethyl-1-(methylamino)-1-oxobutan-2-yl)-3-phenyl-5,6,8,9-tetrahydroimidazo[1,5-d][1,4]oxazepine-1-carboxamide]", "values": [
      {"measurement": "EC50", "setting": "[1]", "value": "10 to 100", "unit": "nM"}
    ]},
    {"smiles": "CNC(=O)[C@@H](NC(=O)c1nc(-c2ccc(F)c(F)c2)n2c1CCCC2)C(C)(C)C", "note": "[Compound 1-7, (S)-3-(3,4-difluorophenyl)-N-(3,3-dimethyl-1-(methyl-amino)-1-oxobutan-2-yl)-5,6,7,8-tetrahydroimidazo[1,5-a]pyridine-1-carboxamide]", "values": [
      {"measurement": "EC50", "setting": "[1]", "value": "0.1 to 10", "unit": "nM"},
      {"measurement": "EC50", "setting": "[2]", "value": "0.1 to 10", "unit": "nM"}
    ]},
    {"smiles": "O=C(N[C@@H]1CCCc2ccccc21)c1nc(-c2ccc(F)c(F)c2)n2c1CCCCC2", "note": "[Compound 1-21, (R)-3-(3,4-difluorophenyl)-N-(1,2,3,4-tetrahydronaphthalen-1-yl)-6,7,8,9-tetrahydro-5H-imidazo[1,5-a]azepine-1-carboxamide]", "values": [
      {"measurement": "EC50", "setting": "[1]", "value": "0.1 to 10", "unit": "nM"}
    ]},
    {"smiles": "CC[C@H](C)[C@H](NC(=O)c1nc(-c2ccc(F)c(F)c2)n2c1CCCCC2)C(N)=O", "note": "[Compound 1-14, N-((2S,3S)-1-amino-3-methyl-1-oxopentan-2-yl)-3-(3,4-difluorophenyl)-6,7,8,9-tetrahydro-5H-imidazo[1,5-a]azepine-1-carboxamide]", "values": [
      {"measurement": "EC50", "setting": "[1]", "value": "0.1 to 10", "unit": "nM"},
      {"measurement": "EC50", "setting": "[2]", "value": "0.1 to 10", "unit": "nM"}
    ]},
    {"smiles": "O=C(N[C@H]1CCCc2ccccc21)c1nc(-c2ccc(F)c(F)c2)n2c1CCCCC2", "note": "[Compound 1-20, (S)-3-(3,4-difluorophenyl)-N-(1,2,3,4-tetrahydronaphthalen-1-yl)-6,7,8,9-tetrahydro-5H-imidazo[1,5-a]azepine-1-carboxamide]", "values": [
      {"measurement": "EC50", "setting": "[1]", "value": "0.1 to 10", "unit": "nM"}
    ]},
    {"smiles": "O=C(N[C@H]1c2ccccc2C[C@H]1O)c1nc(-c2ccc(F)c(F)c2)n2c1CCCCC2", "note": "[Compound 1-18, 3-(3,4-difluorophenyl)-N-((1S,2R)-2-hydroxy-2,3-dihydro-1H-inden-1-yl)-6,7,8,9-tetrahydro-5H-imidazo[1,5-a]azepine-1-carboxamide]", "values": [
      {"measurement": "EC50", "setting": "[1]", "value": "0.1 to 10", "unit": "nM"},
      {"measurement": "EC50", "setting": "[2]", "value": "10 to 100", "unit": "nM"}
    ]},
    {"smiles": "CC(C)(C)[C@H](NC(=O)c1nc(-c2ccccc2)n2c1CCCCC2)C(=O)NCCF", "note": "[Compound 1-22, (S)—N-(1-(2-fluoroethylamino)-3,3-dimethyl-1-oxobutan-2-yl)-3-phenyl-6,7,8,9-tetrahydro-5H-imidazo[1,5-a]azepine-1-carboxamide]", "values": [
      {"measurement": "EC50", "setting": "[1]", "value": "0.1 to 10", "unit": "nM"},
      {"measurement": "EC50", "setting": "[2]", "value": "10 to 100", "unit": "nM"}
    ]},
    {"smiles": "CNC(=O)[C@@H](NC(=O)c1nc(-c2cc(F)ccc2F)n2c1COCCC2)C(C)(C)C", "note": "[Compound 1-12, (S)-3-(2,5-difluorophenyl)-N-(3,3-dimethyl-1-(methylamino)-1-oxobutan-2-yl)-5,6,7,9-tetrahydroimidazo[5,1-c][1,4]oxazepine-1-carboxamide]", "values": [
      {"measurement": "EC50", "setting": "[1]", "value": "0.1 to 10", "unit": "nM"},
      {"measurement": "EC50", "setting": "[2]", "value": "0.1 to 10", "unit": "nM"}
    ]},
    {"smiles": "O=C(NC1CCc2ccccc21)c1nc(-c2ccc(F)c(F)c2)n2c1CCCCC2", "note": "(stereo not drawn) [Compound 1-19, 3-(3,4-difluorophenyl)-N-(2,3-dihydro-1H-inden-1-yl)-6,7,8,9-tetrahydro-5H-imidazo[1,5-a]azepine-1-carboxamide]", "values": [
      {"measurement": "EC50", "setting": "[1]", "value": "0.1 to 10", "unit": "nM"}
    ]}
  ]
}
